Source: PubChem BioAssay (NCI)
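Five compound concentrations were applied to cells in 96-well plates for 48 hours; endpoints were derived by simple linear interpolation of the resulting dose-response curve. At the GI50, growth is halved. The concentration for full growth arrest is given as TGI.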

Tests used:
Assay in all cases: growth of human tumour cells (NCI), 48 h
[1] = test system: SNB-75 CNS
[2] = test system: SK-OV-3 ovarian
[3] = test system: CAKI-1 renal
[4] = test system: M14 melanoma
[5] = test system: MDA-MB-435
[6] = test system: K-562 leukemia
[7] = test system: U251 CNS
[8] = test system: T-47D breast
[9] = test system: TK-10 renal
[10] = test system: OVCAR-4 ovarian
[11] = test system: SNB-19 CNS
[12] = test system: A498 renal
[13] = test system: MCF7 breast
[14] = test system: CCRF-CEM leukemia
[15] = test system: HCT-15 colon
[16] = test system: HCT-116 colon
[17] = test system: NCI/ADR-RES ovarian
[18] = test system: A549 NSCLC
[19] = test system: EKVX NSCLC
[20] = test system: OVCAR-8 ovarian
[21] = test system: IGROV1 ovarian
[22] = test system: OVCAR-3 ovarian
[23] = test system: KM12 colon
[24] = test system: NCI-H226 lung
[25] = test system: UO-31 renal
[26] = test system: OVCAR-5 ovarian
[27] = test system: HT29 colon
[28] = test system: HCC-2998 colon
[29] = test system: UACC-257 melanoma
[30] = test system: SK-MEL-28 melanoma
[31] = test system: SF-268 CNS
[32] = test system: RPMI-8226 leukemia
[33] = test system: MOLT-4 leukemia
[34] = test system: NCI-H23 lung
[35] = test system: SW-620 colon
[36] = test system: SF-539 CNS
[37] = test system: HOP-62 NSCLC
[38] = test system: DU-145 prostate
[39] = test system: SK-MEL-5 melanoma
[40] = test system: SK-MEL-2 melanoma
[41] = test system: HOP-92 NSCLC
[42] = test system: RXF 393 renal
[43] = test system: BT-549 breast
[44] = test system: NCI-H460 lung
[45] = test system: MDA-MB-231 breast
[46] = test system: ACHN renal
[47] = test system: UACC-62 melanoma
[48] = test system: HS 578T breast
[49] = test system: 786-0 renal
[50] = test system: SF-295 CNS
[51] = test system: HL-60(TB) leukemia
[52] = test system: COLO 205 colon
[53] = test system: NCI-H522 lung
[54] = test system: PC-3 prostate
[55] = test system: MALME-3M melanoma
[56] = test system: SN12C renal
[57] = test system: LOX IMVI melanoma

`Cc1ccc(NC(=O)CC(=O)N2N=C(N(c3ccccc3)c3ccccc3)CC2c2ccccc2)cc1` (stereo not drawn) showed a TGI [1] of over 100 µM, a TGI [2] of over 100 µM and a TGI [3] of over 100 µM. It also gave a TGI [4] of over 100 µM, a TGI [5] of over 100 µM and a TGI [6] of over 100 µM. For the same compound, the TGI [7] was over 100 µM, the TGI [8] was over 100 µM and the TGI [9] was over 100 µM. For the same compound, the TGI [10] was over 100 µM, the TGI [11] was over 100 µM and the TGI [12] was over 100 µM. The TGI [13] was over 100 µM, the TGI [14] was over 100 µM and the TGI [15] was over 100 µM. The TGI [16] was over 100 µM, the TGI [17] was over 100 µM and the TGI [18] was over 100 µM. For the same compound, the TGI [19] was over 100 µM, the TGI [20] was over 100 µM and the TGI [21] was over 100 µM. For the same compound, the TGI [22] was over 100 µM, the TGI [23] was over 100 µM and the TGI [24] was over 100 µM. It also gave a TGI [25] of over 100 µM, a TGI [26] of over 100 µM and a TGI [27] of over 100 µM. For the same compound, the TGI [28] was over 100 µM, the TGI [29] was over 100 µM and the TGI [30] was over 100 µM. The TGI [31] was over 100 µM, the TGI [32] was over 100 µM and the TGI [33] was over 100 µM. For the same compound, the TGI [34] was over 100 µM, the TGI [35] was over 100 µM and the TGI [36] was over 100 µM. For the same compound, the TGI [37] was over 100 µM, the TGI [38] was over 100 µM and the TGI [39] was over 100 µM. It also gave a TGI [40] of over 100 µM, a TGI [41] of over 100 µM and a TGI [42] of over 100 µM. For the same compound, the TGI [43] was over 100 µM, the TGI [44] was over 100 µM and the TGI [45] was over 100 µM. For the same compound, the TGI [46] was over 100 µM, the TGI [47] was over 100 µM and the TGI [48] was 86 µM. The TGI [49] was over 100 µM, the TGI [50] was over 100 µM and the TGI [51] was over 100 µM. For the same compound, the TGI [52] was over 100 µM, the TGI [53] was over 100 µM and the TGI [54] was over 100 µM.
`N#C/C(=C\c1ccc(O)c(O)c1)C(=O)NCc1cccc(C(F)(F)F)c1` showed a GI50 [1] of 13.6 µM, a TGI [1] of 59.2 µM and a GI50 [55] of 2.03 µM. For the same compound, the TGI [55] was 25.2 µM, the GI50 [2] was 24.1 µM and the TGI [2] was 75.6 µM. For the same compound, the GI50 [3] was 2.05 µM, the TGI [3] was 7.39 µM and the GI50 [5] was 4.28 µM. The TGI [5] was 18 µM, the GI50 [6] was 21.3 µM and the TGI [6] was over 100 µM. It also gave a GI50 [7] of 6.22 µM, a TGI [7] of 38.4 µM and a GI50 [8] of 13.3 µM. It also gave a TGI [8] of 84.5 µM, a GI50 [9] of 1.31 µM and a TGI [9] of 6.43 µM. For the same compound, the GI50 [10] was 15.1 µM, the TGI [10] was 74.4 µM and the GI50 [11] was 19.4 µM. For the same compound, the TGI [11] was over 100 µM, the GI50 [12] was 10.4 µM and the TGI [12] was 26.9 µM. For the same compound, the GI50 [13] was 19.8 µM, the TGI [13] was over 100 µM and the GI50 [15] was 3.64 µM. The TGI [15] was 46.3 µM, the GI50 [16] was 3.79 µM and the TGI [16] was 17.4 µM. The GI50 [17] was 10.1 µM, the TGI [17] was 34.6 µM and the GI50 [18] was 15.1 µM. It also gave a TGI [18] of 90 µM, a GI50 [19] of 13.7 µM and a TGI [19] of 39.8 µM. It also gave a GI50 [20] of 10.2 µM, a TGI [20] of 62.2 µM and a GI50 [23] of 4.04 µM. For the same compound, the TGI [23] was 19.6 µM, the GI50 [56] was 11.3 µM and the TGI [56] was 31.1 µM. The GI50 [25] was 11.8 µM, the TGI [25] was 73.9 µM and the GI50 [26] was 19.6 µM. It also gave a TGI [26] of 55 µM, a GI50 [27] of 22 µM and a TGI [27] of 56.3 µM. The GI50 [28] was 10.3 µM, the TGI [28] was 22.2 µM and the GI50 [29] was 12.2 µM. For the same compound, the TGI [29] was 52.5 µM, the GI50 [30] was 21.6 µM and the TGI [30] was 72.6 µM. For the same compound, the GI50 [31] was 13.7 µM, the TGI [31] was 42.1 µM and the GI50 [32] was 10.2 µM. It also gave a TGI [32] of over 100 µM, a GI50 [33] of 5.65 µM and a TGI [33] of 41.2 µM. It also gave a GI50 [34] of 12.2 µM, a TGI [34] of 31.5 µM and a GI50 [35] of 9.33 µM. The TGI [35] was 31.3 µM, the GI50 [36] was 3.51 µM and the TGI [36] was 17 µM. For the same compound, the GI50 [37] was 13.4 µM, the TGI [37] was 42.2 µM and the GI50 [38] was 12.1 µM. It also gave a TGI [38] of 50.9 µM, a GI50 [39] of 5.29 µM and a TGI [39] of 19.3 µM. The GI50 [40] was 0.115 µM, the TGI [40] was 2.98 µM and the GI50 [57] was 11.4 µM. For the same compound, the TGI [57] was 26.4 µM, the GI50 [41] was 3.2 µM and the TGI [41] was 26.8 µM. It also gave a GI50 [42] of 17.3 µM, a TGI [42] of 84.5 µM and a GI50 [43] of 5.99 µM. The TGI [43] was 34.4 µM, the GI50 [44] was 6.14 µM and the TGI [44] was 31 µM. For the same compound, the GI50 [45] was 5.82 µM, the TGI [45] was 29 µM and the GI50 [46] was 5.53 µM. It also gave a TGI [46] of 35.2 µM, a GI50 [47] of 10.2 µM and a TGI [47] of 23.8 µM. For the same compound, the GI50 [48] was 12 µM, the TGI [48] was 47.3 µM and the GI50 [49] was 19 µM. For the same compound, the TGI [49] was 45.5 µM, the GI50 [50] was 1.97 µM and the TGI [50] was 15.7 µM. The GI50 [51] was 4.73 µM, the TGI [51] was 92.3 µM and the GI50 [52] was 24.4 µM. For the same compound, the TGI [52] was 76.6 µM, the GI50 [53] was 7.71 µM and the TGI [53] was 63.2 µM. It also gave a GI50 [54] of 19.7 µM and a TGI [54] of over 100 µM.
